Experiments:
Cavia porcellus [1] = assay: Ability to prevent PAF-induced bronchoconstriction in guinea pig when administered at a dose of 1 mg/kg intravenously; assay type: functional; conditions: route intravenous
[2] = biological target: Platelet-activating factor receptor (Cavia porcellus) (UniProt P21556); assay: Ability to prevent PAF-induced bronchoconstriction in guinea pig 2 hr after administration (50 mg/kg perorally); assay type: functional, organism-based
[3] = biological target: Platelet-activating factor receptor (Cavia porcellus) (UniProt P21556); assay: Ability to prevent PAF-induced bronchoconstriction in guinea pig when administered intravenously; assay type: functional
Cavia porcellus [4] = assay: Inhibition of PAF-induced bronchoconstriction in guinea pig 2 hr after p.o. administration.; assay type: functional; conditions: po, read-out: ID50 (the source's name)

Sequence of Platelet-activating factor receptor (Cavia porcellus) (P21556 whole entry): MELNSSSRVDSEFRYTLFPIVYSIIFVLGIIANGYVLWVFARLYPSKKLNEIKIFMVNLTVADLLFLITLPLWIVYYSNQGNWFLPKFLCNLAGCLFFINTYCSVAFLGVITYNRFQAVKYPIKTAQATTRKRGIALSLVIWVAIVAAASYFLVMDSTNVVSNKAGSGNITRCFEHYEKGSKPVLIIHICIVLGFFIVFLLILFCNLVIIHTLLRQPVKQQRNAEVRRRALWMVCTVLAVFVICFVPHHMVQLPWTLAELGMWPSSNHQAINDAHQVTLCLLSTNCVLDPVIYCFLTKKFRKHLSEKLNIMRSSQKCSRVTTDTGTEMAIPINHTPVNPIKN

| inhibition [2] [%] | ID50 [3] [mg/kg] | Structure (SMILES) | inhibition in vivo at 1 mg/kg (Cavia porcellus [1]) [%] | ED50 (Cavia porcellus [4]) [mg/kg] |
| --- | --- | --- | --- | --- |
| – | – | COc1ccc(/C(=C\C=C\C(=O)N[C@H](C)CCCc2cccnc2)C2CCCCC2)cc1 | 18 | – |
| 10 | – | COc1cccc(C(=C/C=C/C(=O)N[C@@H](C)CCCc2cccnc2)c2cccc(OC)c2)c1 | 36 | – |
| – | – | CCCC[C@H](CCCc1cccnc1)NC(=O)/C=C/C=C(c1ccc(OC)cc1)c1ccc(OC)cc1 | 42 | – |
| 54 | 0.27 | COc1ccc(C(=C/C=C/C(=O)NC(C)(C)CCCc2cccnc2)c2ccc(OC)cc2)cc1 | 97 | 55 |
| – | 1.1 | COc1ccc(C(=C/C=C/C(=O)NC(C)CCCc2cccnc2C)c2ccc(OC)cc2)cc1 (stereo not drawn) | 47 | – |
| 53 | 0.31 | C[C@H](CCCc1cccnc1)NC(=O)/C=C/C=C(c1ccc(F)cc1)c1ccc(F)cc1 | 70 | – |
| 25 | 0.46 | COc1cccc(/C(=C\C=C\C(=O)NCCCCc2cccnc2)c2cccc(F)c2)c1 | 88 | – |
| – | – | C[C@@H](CCCc1cccnc1)NC(=O)/C=C/C=C(c1ccc(F)cc1)c1ccc(F)cc1 | 21 | – |
| 54 | 0.18 | O=C(/C=C/C=C(c1ccc(Cl)cc1)c1ccc(Cl)cc1)NCCCCc1cccnc1 | 95 | 50 |
| – | – | COc1ccc(C(=C/C=C/C(=O)N[C@@H](CCCc2cccnc2)C2CCCC2)c2ccc(OC)cc2)cc1 | 19 | – |
| 13 | 0.78 | CCCCC/C(=C/C=C/C(=O)N[C@H](C)CCCc1cccnc1)c1ccc(OC)cc1 | 57 | – |
| – | – | COc1ccc(C(=C/C=C/C(=O)NC(C)CCCc2ccc(C)nc2)c2ccc(OC)cc2)cc1 (stereo not drawn) | 5 | – |
| – | – | COc1ccc(C(=C/C=C/C(=O)NCCOCc2cccnc2)c2ccc(OC)cc2)cc1 | 48 | – |
| – | – | CC[C@@H](CCCc1cccnc1)NC(=O)/C=C/C=C(c1ccc(OC)cc1)c1ccc(OC)cc1 | 44 | – |
| – | – | COc1ccc(/C(C)=C/C=C/C(=O)N[C@H](C)CCCc2cccnc2)cc1 | 42 | – |
| – | 0.26 | O=C(/C=C/C=C(c1cccc([N+](=O)[O-])c1)c1cccc([N+](=O)[O-])c1)NCCCCc1cccnc1 | 78 | – |
| – | – | COc1ccc(C(=C/C=C/C(=O)NCCCOc2cccnc2)c2ccc(OC)cc2)cc1 | 43 | – |
| 9 | 0.52 | CCC/C(=C\C=C\C(=O)N[C@H](C)CCCc1cccnc1)c1ccc(OC)cc1 | 86 | – |
| – | – | COc1ccc(/C=C/C=C/C(=O)N[C@H](C)CCCc2cccnc2)cc1 | -17 | – |
| 0 | 0.5 | COc1ccc(/C(=C\C=C\C(=O)N[C@H](C)CCCc2cccnc2)c2ccccc2)cc1 | 74 | – |
| 1 | 0.25 | COc1cccc(/C(=C/C=C/C(=O)NCCCCc2cccnc2)c2cccc(F)c2)c1 | 90 | – |
| – | – | COc1ccccc1C(=C/C=C/C(=O)NCCCCc1cccnc1)c1ccccc1OC | 40 | – |
| – | – | CCC[C@H](CCCc1cccnc1)NC(=O)/C=C/C=C(c1ccc(OC)cc1)c1ccc(OC)cc1 | 24 | – |
| 23 | 0.47 | O=C(/C=C/C=C(c1cccc(Cl)c1)c1cccc(Cl)c1)NCCCCc1cccnc1 | 76 | – |
| – | – | COc1ccc(C(=C/C=C/C(=O)Nc2ccc(Cc3cccnc3)cc2)c2ccc(OC)cc2)cc1 | 3 | – |
| 46 | – | C[C@@H](CCCc1cccnc1)NC(=O)/C=C/C=C(c1cccc(F)c1)c1cccc(F)c1 | 34 | – |
| 4 | 0.64 | CCCCCC(=C/C=C/C(=O)N[C@H](C)CCCc1cccnc1)CCCCC | 78 | – |
